According to patent US20260015350A1, “AZAQUINAZOLINE PAN-KRAS INHIBITORS” (Mirati Therapeutics, Inc., priority 2022, published 2026):

How the values were obtained:
KRas^G12R = biological target: T1, KRas^G12R (Homo sapiens, UniProt P01116, G12R); assay: KRas binding assay (TR-FRET tracer displacement), KRas G12R
T1 construct: Biotinylated KRas (corresponding to amino acids 1-169, produced at Accelegan Inc.); biotin (biotinylated); purchased Accelegan Inc

KRas^G12V = biological target: T2, KRas^G12V (Homo sapiens, UniProt P01116, G12V); assay: KRas binding assay (TR-FRET tracer displacement), KRas G12V
T2 construct: Biotinylated KRas (corresponding to amino acids 1-169, produced at Accelegan Inc.); biotin (biotinylated); purchased Accelegan Inc

KRas^Q61H = biological target: T3, KRas^Q61H (Homo sapiens, UniProt P01116, Q61H); assay: KRas binding assay (TR-FRET tracer displacement), KRas Q61H; conditions: TR-FRET tracer displacement, KRas Q61H
T3 construct: Biotinylated KRas (corresponding to amino acids 1-169, produced at Accelegan Inc.); biotin (biotinylated); purchased Accelegan Inc

KRas^G12A = biological target: T4, KRas^G12A (Homo sapiens, UniProt P01116, G12A); assay: KRas binding assay (TR-FRET tracer displacement), KRas G12A; conditions: TR-FRET tracer displacement, KRas G12A
T4 construct: Biotinylated KRas (corresponding to amino acids 1-169, produced at Accelegan Inc.); biotin (biotinylated); purchased Accelegan Inc

KRas^WT = biological target: T5, KRas^WT (Homo sapiens, UniProt P01116); assay: KRas binding assay (TR-FRET tracer displacement), KRas WT; conditions: TR-FRET tracer displacement, KRas WT
T5 construct: Biotinylated KRas (corresponding to amino acids 1-169, produced at Accelegan Inc.); biotin (biotinylated); purchased Accelegan Inc

KRas^G12S = biological target: T6, KRas^G12S (Homo sapiens, UniProt P01116, G12S); assay: KRas binding assay (TR-FRET tracer displacement), KRas G12S; conditions: TR-FRET tracer displacement, KRas G12S
T6 construct: Biotinylated KRas (corresponding to amino acids 1-169, produced at Accelegan Inc.); biotin (biotinylated); purchased Accelegan Inc

KRas^G13D = biological target: T7, KRas^G13D (Homo sapiens, UniProt P01116, G13D); assay: KRas binding assay (TR-FRET tracer displacement), KRas G13D; conditions: TR-FRET tracer displacement, KRas G13D
T7 construct: Biotinylated KRas (corresponding to amino acids 1-169, produced at Accelegan Inc.); biotin (biotinylated); purchased Accelegan Inc

KRas^G12C = biological target: T8, KRas^G12C (Homo sapiens, UniProt P01116, G12C); assay: KRas binding assay (TR-FRET tracer displacement), KRas G12C; conditions: TR-FRET tracer displacement, KRas G12C
T8 construct: Biotinylated KRas (corresponding to amino acids 1-169, produced at Accelegan Inc.); biotin (biotinylated); purchased Accelegan Inc

KRas^G12D = biological target: T9, KRas^G12D (Homo sapiens, UniProt P01116, G12D); assay: KRas binding assay (TR-FRET tracer displacement), KRas G12D
T9 construct: Biotinylated KRas (corresponding to amino acids 1-169, produced at Accelegan Inc.); biotin (biotinylated); purchased Accelegan Inc

[1] = test system: KRas-mediated phosphorylation of ERK in AsPC-1 cells; assay: Inhibition of KRas-mediated phosphorylation of ERK (Cisbio HTRF pERK), AsPC-1 cells; assay type: cell-based; conditions: Homo sapiens, ASPC1, AsPC-1 cells; HTRF pERK
Method in brief: (§1)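 Cells were seeded at 6,000 per well and treated for 3 hrs with compound in a 10-dose, 3-fold series from 10 uM (0.8% final DMSO), with 0.2 uM Trametinib as Min control. Lysates made at 4° C over 40 mins were incubated 2 hrs at room temperature with d2- and Cryptate-labelled antibodies, then read by HTRF.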

[2] = test system: KRas-mediated phosphorylation of ERK in MKN1 cells; assay: Inhibition of KRas-mediated phosphorylation of ERK (Cisbio HTRF pERK), MKN1 cells; assay type: cell-based; conditions: Homo sapiens, MKN-1
Method in brief: (§2)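 Phospho-ERK is quantified by HTRF with the Advanced pERK kit. Cells go in at 6,000/well in RPMI plus 10% FBS overnight at 37° C. under 5% CO2, with a 4-hour covered room-temperature incubation ahead of the read.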

[3] = test system: KRas-mediated phosphorylation of ERK in PSN1 cells; assay: Inhibition of KRas-mediated phosphorylation of ERK (Cisbio HTRF pERK), PSN1 cells; assay type: cell-based; conditions: Homo sapiens
Method in brief: as §2

[4] = test system: KRas-mediated phosphorylation of ERK in H727 cells; assay: Inhibition of KRas-mediated phosphorylation of ERK (Cisbio HTRF pERK), H727 cells; assay type: cell-based; conditions: Homo sapiens, NCI-H727, H727 cells; HTRF pERK
Method in brief: as §1

[5] = test system: KRas-mediated phosphorylation of ERK in H358 cells; assay: Inhibition of KRas-mediated phosphorylation of ERK (Cisbio HTRF pERK), H358 cells; assay type: cell-based; conditions: Homo sapiens, NCI-H358, HTRF pERK
Method in brief: as §1

[6] = test system: KRas-mediated phosphorylation of ERK in H460 cells; assay: Inhibition of KRas-mediated phosphorylation of ERK (Cisbio HTRF pERK), H460 cells; assay type: cell-based; conditions: Homo sapiens, NCI-H460, HTRF pERK
Method in brief: as §1

[7] = test system: KRas-mediated phosphorylation of ERK in HCT116 cells; assay: Inhibition of KRas-mediated phosphorylation of ERK (Cisbio HTRF pERK), HCT116 cells; assay type: cell-based; conditions: Homo sapiens, HCT-116, HTRF pERK
Method in brief: (§3)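 Min control wells contained 0.2 uM Trametinib, while test compounds ran as 10 doses (3-fold, top 10 uM; 0.8% DMSO final) on cells for 3 hrs. After 40 mins lysis at 4° C, lysates were probed with HTRF antibodies for 2 hrs at room temperature.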

[8] = test system: KRas-mediated phosphorylation of ERK in A549 cells; assay: Inhibition of KRas-mediated phosphorylation of ERK (Cisbio HTRF pERK), A549 cells; assay type: cell-based; conditions: Homo sapiens, HTRF pERK
Method in brief: as §3

T3 sequence (P01116 1-169 isoform P01116-2 Q61H): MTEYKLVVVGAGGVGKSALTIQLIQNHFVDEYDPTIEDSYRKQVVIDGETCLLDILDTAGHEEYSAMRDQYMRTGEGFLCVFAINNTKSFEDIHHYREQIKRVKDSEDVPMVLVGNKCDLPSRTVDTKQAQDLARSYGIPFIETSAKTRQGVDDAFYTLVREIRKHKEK
T6 sequence (P01116 1-169 isoform P01116-2 G12S): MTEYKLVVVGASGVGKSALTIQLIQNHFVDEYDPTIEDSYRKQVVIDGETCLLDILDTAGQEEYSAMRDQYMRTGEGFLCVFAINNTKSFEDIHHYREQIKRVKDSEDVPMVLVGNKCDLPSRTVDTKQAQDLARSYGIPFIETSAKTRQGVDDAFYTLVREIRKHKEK
T9 sequence (P01116 1-169 isoform P01116-2 G12D): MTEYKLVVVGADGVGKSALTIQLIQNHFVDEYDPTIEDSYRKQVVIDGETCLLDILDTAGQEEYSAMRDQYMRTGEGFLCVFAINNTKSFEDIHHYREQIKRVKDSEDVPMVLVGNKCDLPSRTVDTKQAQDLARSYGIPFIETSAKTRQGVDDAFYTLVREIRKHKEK
T1 sequence (P01116 1-169 isoform P01116-2 G12R): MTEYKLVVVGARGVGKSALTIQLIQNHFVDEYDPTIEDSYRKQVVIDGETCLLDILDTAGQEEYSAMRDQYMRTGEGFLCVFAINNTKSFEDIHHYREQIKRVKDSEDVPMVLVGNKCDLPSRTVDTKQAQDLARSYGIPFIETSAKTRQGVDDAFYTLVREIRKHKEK
T2 sequence (P01116 1-169 isoform P01116-2 G12V): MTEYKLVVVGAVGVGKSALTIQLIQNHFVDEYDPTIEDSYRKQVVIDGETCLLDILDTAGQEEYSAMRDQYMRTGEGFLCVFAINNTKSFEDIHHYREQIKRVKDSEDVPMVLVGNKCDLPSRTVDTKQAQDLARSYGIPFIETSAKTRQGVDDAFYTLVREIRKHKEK
T7 sequence (P01116 1-169 isoform P01116-2 G13D): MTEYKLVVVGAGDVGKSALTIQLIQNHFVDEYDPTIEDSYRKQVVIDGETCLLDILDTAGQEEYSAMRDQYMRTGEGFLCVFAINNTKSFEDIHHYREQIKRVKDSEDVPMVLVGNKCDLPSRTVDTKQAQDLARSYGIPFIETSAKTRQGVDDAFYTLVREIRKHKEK
T8 sequence (P01116 1-169 isoform P01116-2 G12C): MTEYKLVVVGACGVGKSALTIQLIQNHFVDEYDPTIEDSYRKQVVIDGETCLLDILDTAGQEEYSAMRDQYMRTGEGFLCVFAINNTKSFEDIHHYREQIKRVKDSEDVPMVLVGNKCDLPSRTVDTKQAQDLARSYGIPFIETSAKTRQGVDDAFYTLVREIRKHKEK
T4 sequence (P01116 1-169 isoform P01116-2 G12A): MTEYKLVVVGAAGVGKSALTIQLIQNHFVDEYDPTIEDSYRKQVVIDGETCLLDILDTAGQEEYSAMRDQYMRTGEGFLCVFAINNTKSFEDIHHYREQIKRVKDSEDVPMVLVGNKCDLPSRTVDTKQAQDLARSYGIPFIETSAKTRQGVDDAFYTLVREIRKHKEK
T5 sequence (P01116 1-169 isoform P01116-2): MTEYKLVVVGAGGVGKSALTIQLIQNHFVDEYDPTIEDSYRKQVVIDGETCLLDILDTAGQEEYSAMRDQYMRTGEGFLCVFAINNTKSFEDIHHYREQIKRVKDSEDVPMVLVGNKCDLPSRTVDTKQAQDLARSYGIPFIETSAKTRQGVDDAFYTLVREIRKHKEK

Row | SMILES | IC50 (KRas^G12R) [nM] | IC50 (KRas^G12V) [nM] | IC50 (KRas^Q61H) [nM] | IC50 (KRas^G12A) [nM] | IC50 (KRas^WT) [nM] | IC50 (KRas^G12S) [nM] | IC50 (KRas^G13D) [nM] | IC50 (KRas^G12C) [nM] | IC50 (KRas^G12D) [nM] | IC50 [1] [nM] | IC50 [2] [nM] | IC50 [3] [nM] | IC50 [4] [nM] | IC50 [5] [nM] | IC50 [6] [nM] | IC50 [7] [nM] | IC50 [8] [nM]
1 | O=C1NC(=O)C2CC(c3nc(OCC45CCCN4CCC5)nc4c(F)c(-c5cccc6cccc(F)c56)ncc34)=CC12 (stereo not shown) [Example 525, 5-(8-fluoro-7-(8-fluoronaphthalen-1-yl)-2-((tetrahydro-1H-pyrrolizin-7a(5H)-yl)methoxy)pyrido[4,3-d]pyrimidin-4-yl)-4,6a-dihydrocyclopenta[c]pyrrole-1,3(2H,3aH)-dione] | 45400 | 55900 | > 100000 | 93800 | > 100000 | > 100000 | > 100000 | > 100000 | 50700 |  |  |  |  |  |  |  | 
2 | O[C@@H]1C[C@H]2C[C@@H]1CN(c1nc(OC[C@@]34CCCN3C[C@H](F)C4)nc3c(F)c(-c4cccc5ccccc45)ncc13)C2 [Example 724, (1R,5R,6R)-3-(8-fluoro-2-(((2R,7aS)-2-fluorohexahydro-1H-pyrrolizin-7a-yl)methoxy)-7-(naphthalen-1-yl)pyrido[4,3-d]pyrimidin-4-yl)-3-azabicyclo[3.2.1]octan-6-ol] | 720 | 404 | 612 | 301 | 419 | 170 | 585 | 185 | 1590 |  |  |  |  |  |  |  | 
3 | C#Cc1c(F)ccc2cc(O)cc(-c3ncc4c(N5CCC[C@@](C)(O)C5)nc(OC[C@]56CCCN5C/C(=C\F)C6)nc4c3F)c12 [Example 801, (3R)-1-(7-(8-ethynyl-7-fluoro-3-hydroxynaphthalen-1-yl)-8-fluoro-2-(((Z)-2-(fluoromethylene)tetrahydro-1H-pyrrolizin-7a(5H)-yl)methoxy)pyrido[4,3-d]pyrimidin-4-yl)-3-methylpiperidin-3-ol] |  | < 2 |  |  | < 2 | < 2 |  | < 2 | < 2 | 3 | 0.1 | 117 | 12 | 1 | 4 | 15 | 7
4 | Cc1cc2sncc2c(-c2ncc3c(N4CCC[C@@](C)(O)C4)nc(OCC45CCCN4CCC5)nc3c2F)c1C [Example 820, (3R)-1-(7-(5,6-dimethylbenzo[d]isothiazol-4-yl)-8-fluoro-2-((tetrahydro-1H-pyrrolizin-7a(5H)-yl)methoxy)pyrido[4,3-d]pyrimidin-4-yl)-3-methylpiperidin-3-ol] | 76200 | 52000 | 2130 | 634 | 1400 | 1510 | 470 | 591 | 22900 |  |  |  |  |  |  |  | 
5 | CCc1c(F)ccc2cc(O)cc(-c3ncc4c(N5CC=CCC5)nc(OC[C@@]56CCCN5C[C@H](F)C6)nc4c3F)c12 [Example 921, 4-(4-(3,6-dihydropyridin-1(2H)-yl)-8-fluoro-2-(((2R,7aS)-2-fluorotetrahydro-1H-pyrrolizin-7a(5H)-yl)methoxy)pyrido[4,3-d]pyrimidin-7-yl)-5-ethyl-6-fluoronaphthalen-2-ol] |  | 2 |  |  | 4 | 2 |  | 2 | 4 | 92 | 0.4 | 7630 | 86 | 33 | 75 | 309 | 68
6 | CCc1c(F)ccc2cc(O)cc(-c3ncc4c(N5C[C@@H]6C[C@H](C5)[C@H](O)C6)nc(OCC56CCCN5CC5(CC5)C6)nc4c3F)c12 (stereo partly drawn) [Example 931, (1R,5R,6R)-3-(2-((dihydro-1′H,3′H-spiro[cyclopropane-1,2′-pyrrolizin]-7a′ (5′H)-yl)methoxy)-7-(8-ethyl-7-fluoro-3-hydroxynaphthalen-1-yl)-8-fluoropyrido[4,3-d]pyrimidin-4-yl)-3-azabicyclo[3.2.1]octan-6-ol] |  | < 2 |  |  | < 2 | < 2 |  | < 2 | < 2 | 58 | 0.9 | 2280 | 59 | 5 | 15 | 72 | 17

Results, then the compound that gave them:

Row | IC50 (KRas^G12R) [nM] | IC50 (KRas^G12V) [nM] | IC50 (KRas^Q61H) [nM] | IC50 (KRas^G12A) [nM] | IC50 (KRas^WT) [nM] | IC50 (KRas^G12S) [nM] | IC50 (KRas^G13D) [nM] | IC50 (KRas^G12C) [nM] | IC50 (KRas^G12D) [nM] | IC50 [1] [nM] | IC50 [2] [nM] | IC50 [3] [nM] | IC50 [4] [nM] | IC50 [5] [nM] | IC50 [6] [nM] | IC50 [7] [nM] | IC50 [8] [nM] | SMILES
7 |  | < 2 |  |  | < 2 | < 2 |  | < 2 | < 2 | 2 | 4 | 4790 | 11 | 4 | 28 | 130 | 41 | CCc1c(F)ccc2cc(O)cc(-c3ncc4c(N5CCCn6nc(C(=O)N(C)C)cc6C5)nc(OCC56CCCN5C/C(=C\F)C6)nc4c3F)c12 (stereo not shown) [Example 795, (Z)-5-(7-(8-ethyl-7-fluoro-3-hydroxynaphthalen-1-yl)-8-fluoro-2-((2-(fluoromethylene)tetrahydro-1H-pyrrolizin-7a(5H)-yl)methoxy)pyrido[4,3-d]pyrimidin-4-yl)-N,N-dimethyl-5,6,7,8-tetrahydro-4H-pyrazolo[1,5-a][1,4]diazepine-2-carboxamide]
8 |  | < 2 |  |  | < 2 | < 2 |  | < 2 | < 2 | 17 | 0.3 | 946 | 19 | 3 | 4 | 25 | 3 | CCc1c(F)ccc2cc(O)cc(-c3ncc4c(N5C[C@@H]6C[C@H](C5)[C@H](O)C6)nc(OCC56CCCN5CC(=C(F)F)C6)nc4c3F)c12 (stereo partly drawn) [Example 798, (1R,5R,6R)-3-(2-((2-(difluoromethylene)tetrahydro-1H-pyrrolizin-7a(5H)-yl)methoxy)-7-(8-ethyl-7-fluoro-3-hydroxynaphthalen-1-yl)-8-fluoropyrido[4,3-d]pyrimidin-4-yl)-3-azabicyclo[3.2.1]octan-6-ol]
9 |  | < 2 |  |  | < 2 | < 2 |  | < 2 | < 2 | 7 | 0.9 | 988 | 20 | 4 | 8 | 30 | 9 | C=C1CN2CC(=C)CC2(COc2nc(N3CCC[C@@](C)(O)C3)c3cnc(-c4cc(O)cc5ccc(F)c(CC)c45)c(F)c3n2)C1 [Example 799, (R)-1-(2-((2,6-dimethylenetetrahydro-1H-pyrrolizin-7a(5H)-yl)methoxy)-7-(8-ethyl-7-fluoro-3-hydroxynaphthalen-1-yl)-8-fluoropyrido[4,3-d]pyrimidin-4-yl)-3-methylpiperidin-3-ol]
10 |  | < 2 |  |  | < 2 | < 2 |  | < 2 | < 2 | 6 | 0.3 | 587 | 3 | 1 | 3 | 13 | 3 | C=C1CN2CCCC2(COc2nc(N3C[C@@H]4C[C@H](C3)[C@H](O)C4)c3cnc(-c4cc(O)cc5ccc(F)c(CC)c45)c(F)c3n2)C1 (stereo partly drawn) [Example 800, (1R,5R,6R)-3-(7-(8-ethyl-7-fluoro-3-hydroxynaphthalen-1-yl)-8-fluoro-2-((2-methylenetetrahydro-1H-pyrrolizin-7a(5H)-yl)methoxy)pyrido[4,3-d]pyrimidin-4-yl)-3-azabicyclo[3.2.1]octan-6-ol]
